# Measured values: ChEMBL document CHEMBL1201862, “PubChem BioAssay data set” (2004)
# Activity calls are given as the source filed them.
# How the values were obtained:
# [1] = biological target: T1, Short transient receptor potential channel 4 (Mus musculus, UniProt Q9QUQ5); test: calcium entry via TRPC4 opening agents – cell-based, HEK293 TRPC4/mu-opioid, Fluo-4 calcium, dose response (AID 434937); assay type: functional
# T1 sequence (Q9QUQ5 whole entry): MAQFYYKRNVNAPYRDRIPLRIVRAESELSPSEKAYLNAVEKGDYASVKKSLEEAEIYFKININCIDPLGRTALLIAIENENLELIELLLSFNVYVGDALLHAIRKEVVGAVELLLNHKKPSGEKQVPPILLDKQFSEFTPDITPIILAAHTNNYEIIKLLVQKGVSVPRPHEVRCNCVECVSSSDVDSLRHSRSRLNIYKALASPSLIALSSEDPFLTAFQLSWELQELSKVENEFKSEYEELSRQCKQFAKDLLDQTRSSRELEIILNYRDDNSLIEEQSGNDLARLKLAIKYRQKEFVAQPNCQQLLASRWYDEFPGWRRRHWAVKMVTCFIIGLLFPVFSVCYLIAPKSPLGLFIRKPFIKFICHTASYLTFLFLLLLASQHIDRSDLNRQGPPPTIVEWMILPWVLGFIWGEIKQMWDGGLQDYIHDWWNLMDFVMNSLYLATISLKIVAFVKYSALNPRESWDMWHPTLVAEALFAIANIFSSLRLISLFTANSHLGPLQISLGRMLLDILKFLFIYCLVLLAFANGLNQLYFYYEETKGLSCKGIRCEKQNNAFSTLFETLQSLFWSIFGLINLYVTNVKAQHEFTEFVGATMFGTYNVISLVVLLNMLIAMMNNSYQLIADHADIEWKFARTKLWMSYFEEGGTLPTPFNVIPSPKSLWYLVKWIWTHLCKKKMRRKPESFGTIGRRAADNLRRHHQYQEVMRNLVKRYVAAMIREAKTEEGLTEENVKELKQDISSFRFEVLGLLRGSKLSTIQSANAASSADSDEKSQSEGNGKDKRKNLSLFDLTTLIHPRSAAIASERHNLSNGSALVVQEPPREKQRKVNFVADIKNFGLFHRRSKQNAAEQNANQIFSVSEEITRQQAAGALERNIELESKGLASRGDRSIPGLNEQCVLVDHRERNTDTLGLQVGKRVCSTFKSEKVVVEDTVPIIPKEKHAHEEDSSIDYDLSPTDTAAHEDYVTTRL
# [2] = biological target: T1, Short transient receptor potential channel 4; test: block of DAMGO-driven TRPC4 calcium entry – cell-based, HEK293 TRPC4/mu-opioid, Fluo-4 calcium, dose response (AID 434942); assay type: functional;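 further: potency of inhibitors blocking the TRPC4 calcium response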
# [3] = biological target: T2, Heat shock factor protein 1 (Mus musculus, UniProt P38532); test: decrease of HSF1-responsive luciferase luminescence – cell-based, NIH3T3, dose retest, confirmation (AID 2382); assay type: functional;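 further: NIH3T3 fibroblasts with HSF1-driven luciferase reporter stressed by proteasome inhibitor MG132; luminescence from HSF1-driven luciferase expression after 8 hours of MG132 stress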
# T2 sequence (P38532 whole entry): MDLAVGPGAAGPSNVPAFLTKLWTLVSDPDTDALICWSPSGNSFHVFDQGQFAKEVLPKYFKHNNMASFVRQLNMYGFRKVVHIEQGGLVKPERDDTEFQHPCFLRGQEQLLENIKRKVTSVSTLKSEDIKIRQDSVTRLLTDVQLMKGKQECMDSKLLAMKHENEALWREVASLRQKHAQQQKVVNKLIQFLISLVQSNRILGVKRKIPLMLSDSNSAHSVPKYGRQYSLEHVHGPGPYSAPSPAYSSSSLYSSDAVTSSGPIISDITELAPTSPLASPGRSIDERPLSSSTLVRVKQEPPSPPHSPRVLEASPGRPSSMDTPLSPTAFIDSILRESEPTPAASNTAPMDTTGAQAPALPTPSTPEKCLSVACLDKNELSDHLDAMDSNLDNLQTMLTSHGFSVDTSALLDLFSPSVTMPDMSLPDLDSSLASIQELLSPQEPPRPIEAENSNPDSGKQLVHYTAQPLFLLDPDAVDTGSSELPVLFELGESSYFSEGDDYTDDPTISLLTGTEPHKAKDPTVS
# [4] = A Cell Based Secondary Assay To Explore Cytotoxicity of Compounds that Sensitize Mycobacterium Tuberculosis to Beta-Lactam Antibiotics.; assay type: functional
# [5] = biological target: G-protein coupled receptor 55 (Homo sapiens, UniProt Q9Y2T6); test: inhibition of LPI-stimulated GPR55 beta-arrestin translocation – imaging, U2OS, beta-arrestin-GFP, LPI agonist, primary screen (AID 2013); assay type: functional;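 further: antagonist potency measured as reduced agonist-driven arrestin aggregation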
# Sequence of G-protein coupled receptor 55 (Q9Y2T6 whole entry): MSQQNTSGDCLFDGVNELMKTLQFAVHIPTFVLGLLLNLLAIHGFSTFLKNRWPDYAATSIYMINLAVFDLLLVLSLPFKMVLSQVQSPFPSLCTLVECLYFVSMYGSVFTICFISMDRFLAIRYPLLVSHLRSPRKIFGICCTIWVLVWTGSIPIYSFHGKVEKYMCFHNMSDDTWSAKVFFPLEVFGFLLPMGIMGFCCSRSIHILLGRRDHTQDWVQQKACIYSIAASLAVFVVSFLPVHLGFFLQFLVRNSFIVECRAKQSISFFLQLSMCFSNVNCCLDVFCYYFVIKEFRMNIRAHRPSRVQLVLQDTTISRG
# [6] = Counterscreen for inhibitors of Trypanosoma brucei methionyl tRNA synthetase (MetRS): Luminescence-based cell-based high throughput dose response assay to identify compounds that are cytotoxic to Jurkat human T lymphocyte cells.; assay type: functional
# [7] = biological target: T3, Methionyl-tRNA synthetase, putative (Trypanosoma brucei brucei, UniProt Q38C91); assay type: functional, Trypanosoma brucei brucei strain 927/4 GUTat10.1;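 further: Read-out by fluorescence polarization, run as a confirmatory high-throughput counterscreen; potency of MetRS inhibitors measured by reduced AMP formation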
# T3 sequence (Q38C91 whole entry): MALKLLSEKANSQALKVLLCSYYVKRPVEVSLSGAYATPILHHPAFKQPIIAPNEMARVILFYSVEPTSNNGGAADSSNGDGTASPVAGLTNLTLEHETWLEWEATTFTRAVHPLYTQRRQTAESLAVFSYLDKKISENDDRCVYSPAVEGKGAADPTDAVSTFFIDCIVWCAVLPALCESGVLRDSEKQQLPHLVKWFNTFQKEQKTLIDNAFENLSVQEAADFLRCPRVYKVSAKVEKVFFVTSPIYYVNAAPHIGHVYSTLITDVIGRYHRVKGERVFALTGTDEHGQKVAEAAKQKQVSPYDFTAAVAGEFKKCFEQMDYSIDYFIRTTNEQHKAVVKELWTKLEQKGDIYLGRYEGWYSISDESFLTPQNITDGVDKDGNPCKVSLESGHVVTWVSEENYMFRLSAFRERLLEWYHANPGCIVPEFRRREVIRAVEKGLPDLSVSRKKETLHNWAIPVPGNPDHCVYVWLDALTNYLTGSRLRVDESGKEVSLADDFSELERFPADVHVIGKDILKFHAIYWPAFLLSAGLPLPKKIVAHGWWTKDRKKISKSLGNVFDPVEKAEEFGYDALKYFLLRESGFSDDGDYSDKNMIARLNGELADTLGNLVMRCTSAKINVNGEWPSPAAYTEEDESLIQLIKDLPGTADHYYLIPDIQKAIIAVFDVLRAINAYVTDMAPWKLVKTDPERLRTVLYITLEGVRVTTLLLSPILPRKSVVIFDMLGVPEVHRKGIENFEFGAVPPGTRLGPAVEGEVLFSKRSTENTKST
# [8] = biological target: T4, Small ubiquitin-related modifier 1 (Homo sapiens, UniProt P63165); test: SUMO1 protein interaction blockers, potency – biochemical, fluorescence polarization, uHTS hits, dose response (AID 624382); assay type: functional; settings: read-out: IC50_Mean
# T4 sequence (P63165 whole entry): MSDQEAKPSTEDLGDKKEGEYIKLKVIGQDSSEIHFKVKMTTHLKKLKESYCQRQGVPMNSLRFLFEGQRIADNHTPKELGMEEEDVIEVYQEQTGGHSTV
# [9] = biological target: T4, Small ubiquitin-related modifier 1; test: SUMO1 protein-protein binding blockers, potency – biochemical, FRET, dose response (AID 624383); assay type: functional; settings: read-out: IC50_Mean
# [10] = biological target: Intestinal-type alkaline phosphatase (Homo sapiens, UniProt P09923); test: inhibition of human intestinal alkaline phosphatase – biochemical, dose response (AID 488876); assay type: functional
# Sequence of Intestinal-type alkaline phosphatase (Homo sapiens, UniProt P09923) (P09923 whole entry): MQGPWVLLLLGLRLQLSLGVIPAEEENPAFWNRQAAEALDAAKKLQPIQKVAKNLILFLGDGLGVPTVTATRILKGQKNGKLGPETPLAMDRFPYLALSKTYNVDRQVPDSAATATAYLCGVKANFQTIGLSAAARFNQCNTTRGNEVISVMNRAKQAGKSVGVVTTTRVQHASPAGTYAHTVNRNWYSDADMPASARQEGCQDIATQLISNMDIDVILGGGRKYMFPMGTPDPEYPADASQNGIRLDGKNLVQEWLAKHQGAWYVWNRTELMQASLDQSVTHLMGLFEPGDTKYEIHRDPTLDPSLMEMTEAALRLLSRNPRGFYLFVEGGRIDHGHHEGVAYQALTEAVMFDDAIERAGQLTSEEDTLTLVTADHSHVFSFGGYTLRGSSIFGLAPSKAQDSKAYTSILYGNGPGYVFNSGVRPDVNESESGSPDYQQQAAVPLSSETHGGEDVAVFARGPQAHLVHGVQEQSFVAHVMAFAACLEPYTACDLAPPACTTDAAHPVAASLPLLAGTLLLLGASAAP
# [11] = biological target: T5, Alkaline phosphatase, tissue-nonspecific isozyme (Homo sapiens, UniProt P05186); test: TNAP enzyme inhibition by screening hits, dose response, selectivity assay for mouse IAP inhibitor project, biochemical, human TNAP, uHTS hits (AID 488906); assay type: functional
# T5 sequence (P05186 whole entry): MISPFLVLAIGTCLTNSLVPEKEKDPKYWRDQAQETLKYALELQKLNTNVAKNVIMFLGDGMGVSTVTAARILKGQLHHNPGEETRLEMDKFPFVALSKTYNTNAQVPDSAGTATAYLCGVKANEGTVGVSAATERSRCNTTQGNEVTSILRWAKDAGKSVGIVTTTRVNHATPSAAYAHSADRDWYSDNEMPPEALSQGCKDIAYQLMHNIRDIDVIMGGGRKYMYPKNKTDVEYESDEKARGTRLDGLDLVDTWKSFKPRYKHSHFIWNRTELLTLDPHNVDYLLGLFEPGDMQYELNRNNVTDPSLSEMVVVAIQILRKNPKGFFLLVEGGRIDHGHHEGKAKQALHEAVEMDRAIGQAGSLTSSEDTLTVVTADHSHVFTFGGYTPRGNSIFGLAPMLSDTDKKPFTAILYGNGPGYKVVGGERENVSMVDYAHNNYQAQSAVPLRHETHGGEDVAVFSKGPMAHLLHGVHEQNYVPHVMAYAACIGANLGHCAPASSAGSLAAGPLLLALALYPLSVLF
# [12] = viability of uninfected HEp-2 cells – cell-based, HTS, cytotoxicity control for RSV inhibitor project, dose response (AID 2410); assay type: functional; settings: human respiratory syncytial virus
# [13] = biological target: Intestinal-type alkaline phosphatase (Mus musculus, UniProt P24822); test: PubChem AID 488785; assay type: functional
# Sequence of Intestinal-type alkaline phosphatase (Mus musculus, UniProt P24822) (P24822 whole entry): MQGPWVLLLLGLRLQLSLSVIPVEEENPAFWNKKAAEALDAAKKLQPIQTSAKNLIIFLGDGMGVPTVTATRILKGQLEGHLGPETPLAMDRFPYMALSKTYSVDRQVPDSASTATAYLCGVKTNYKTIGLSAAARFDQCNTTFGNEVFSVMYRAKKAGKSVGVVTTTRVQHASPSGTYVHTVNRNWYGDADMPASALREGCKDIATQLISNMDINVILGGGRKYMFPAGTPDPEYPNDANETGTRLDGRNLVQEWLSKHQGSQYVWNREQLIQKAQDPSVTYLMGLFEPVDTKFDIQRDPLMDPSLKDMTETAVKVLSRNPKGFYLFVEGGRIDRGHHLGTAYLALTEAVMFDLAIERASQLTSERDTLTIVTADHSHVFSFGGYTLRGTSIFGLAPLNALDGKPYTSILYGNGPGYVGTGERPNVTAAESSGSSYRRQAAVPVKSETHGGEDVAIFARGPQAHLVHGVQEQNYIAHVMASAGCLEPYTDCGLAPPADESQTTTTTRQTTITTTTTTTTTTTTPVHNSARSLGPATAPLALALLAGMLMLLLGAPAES
structure (smiles),measurement,setting,value
COc1cc2c(cc1OC)C(C)N(C(=O)C(NC(=O)c1ccccc1)C(C)C)CC2 (centres undefined),EC50,[1],5.96 µM (active)
COc1ccc(/C=C/C(=O)Nc2ccccc2C(=O)NCC(c2ccc(OC)cc2)N(C)C)cc1 (centres undefined),EC50,[2],0.188 µM (active)
same,EC50,[1],0.421 µM (active)
same,EC50,[3],> 195 µM (not active)
COc1ccc(NC(=O)CN2CCN(C3c4ccccc4-c4ccccc43)CC2)c(OC)c1,CC50,[4],> 40 µM (active)
same,IC50,[5],2.19 µM (active)
COc1ccccc1NS(=O)(=O)c1cc(NC(=O)Nc2ccccc2)ccc1N1CCCCC1,IC50,[6],83.3 µM (inactive)
same,IC50,[7],19.7 µM (inactive)
Nc1nccnc1C(=O)OCC(=O)Nc1ccc2[nH]c(O)nc2c1,IC50,[8],> 66.6 µM (inactive)
same,IC50,[9],11.9 µM (active)
Cc1ccc(S(=O)(=O)N2CCC(C(=O)Nc3ccc(C(C)C)cc3)CC2)cc1,IC50,[10],> 100 µM (inactive)
same,IC50,[11],> 100 µM (inactive)
same,IC50,cells,40.7 µM (active)
same,CC50,[12],13 µM (active)
same,IC50,[13],7.81 µM (active)
CCOc1ccccc1CNC(=O)CCNS(=O)(=O)c1ccc2nc(O)oc2c1,IC50,[10],> 100 µM (inactive)
same,IC50,[11],22.7 µM (active)
same,IC50,[13],2.65 µM (active)
Cc1c(CN2CCC(n3nccc3NC(=O)C3CC3)CC2)[nH]c2ccccc12,EC50,[1],0.596 µM (active)
